The supplement of paper PMC4862054
Each block holds one compound with its values, some of them ahead of it.

Assays:
Details in all cases: 72 h
[1] = tested on: CAL-120
Outline: (§1)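 The plates used were 384-well plates holding compound at 5 concentrations in 10-fold steps across a compound-specific 10,000-fold range, into which breast cancer cell lines were seeded in 20 µl suspension. Following 72 h incubation, CellTox Green fluorescence was read at 485/520 nm, and CellTiter-Glo luminescence was read after 10 min at room temperature. Normalisation on each plate used 0.1 % DMSO and a positive kill control. Dose-response curves gave the EC50, which was censored at the top concentration.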

[2] = tested on: MFM-223
Outline: (§2)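 After 72 h on 384-well plates pre-loaded with compound in 5 µl medium, breast cancer cell lines seeded in 20 µl were assayed for viability with 2.5 µl CellTiter-Blue at 37 °C for 2 h, read at 560/590 nm. Each plate was quality-checked by Z'-factor and normalised to vehicle and a positive kill control. EC50 comes from the fitted percent-inhibition dose-response curve, censored at the top concentration, and rows scoring zero for drug sensitivity were left out.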

[3] = tested on: Hs578T
Outline: as §2

[4] = tested on: SK-BR-3
Outline: as §2

[5] = tested on: CAL-120; remark: listed apart in the source
Outline: as §2

[6] = tested on: HCC1143
Outline: as §2

[7] = tested on: HCC1937
Outline: as §2

[8] = tested on: MDA-MB-468
Outline: as §2

[9] = tested on: HCC1599
Outline: as §2

[10] = tested on: BT-549
Outline: as §2

[11] = tested on: CAL-51
Outline: as §2

[12] = tested on: DU-4475
Outline: as §2

[13] = tested on: MDA-MB-453
Outline: as §2

[14] = tested on: CAL-85-1
Outline: as §2

[15] = tested on: HDQ-P1
Outline: as §2

[16] = tested on: CAL-148
Outline: as §2

[17] = tested on: HCC1937; remark: listed apart in the source
Outline: as §1

[18] = tested on: MDA-MB-436
Outline: as §2

[19] = tested on: MDA-MB-453; remark: listed apart in the source
Outline: as §1

[20] = tested on: HCC1143; remark: listed apart in the source
Outline: as §1

[21] = tested on: BT-474
Outline: as §1

[22] = tested on: HCC1599; remark: listed apart in the source
Outline: as §1

[23] = tested on: MDA-MB-231
Outline: as §2

[24] = tested on: BT-474; remark: listed apart in the source
Outline: as §2

[25] = tested on: MFM-223; remark: listed apart in the source
Outline: as §1

[26] = tested on: Hs578T; remark: listed apart in the source
Outline: as §1

[27] = tested on: CAL-85-1; remark: listed apart in the source
Outline: as §1

[28] = tested on: HDQ-P1; remark: listed apart in the source
Outline: as §1

[29] = tested on: MCF-10A
Outline: as §1

[30] = tested on: MDA-MB-231; remark: listed apart in the source
Outline: as §1

[31] = tested on: BT-549; remark: listed apart in the source
Outline: as §1

SMILES: C[C@]12C=CC(=O)C=C1CC[C@@H]1[C@@H]2C(=O)C[C@@]2(C)[C@H]1CC[C@]2(O)C(=O)CO [Prednisone]
- EC50, CellTox Green [1]: 1000 nM

SMILES: CN1CCc2c(c3ccccc3n2Cc2ccc(C(=O)NO)cc2)C1 [Tubastatin A]
- EC50, CellTox Green [20]: 297 nM
- EC50, CellTox Green [21]: > 10000 nM

The next lines start with results.

- EC50, CellTiter-Blue viability [4]: 3.42 nM
- EC50, CellTiter-Blue viability [6]: 1.33 nM
- EC50, CellTiter-Blue viability [7]: 0.16 nM
- EC50, CellTiter-Blue viability [8]: 0.26 nM
- EC50, CellTiter-Blue viability [9]: 1.57 nM
- EC50, CellTiter-Blue viability [10]: 0.2 nM
- EC50, CellTiter-Blue viability [13]: 0.71 nM
SMILES: CO[C@H]1C[C@@H]2CC[C@@H](C)[C@@](O)(O2)C(=O)C(=O)N2CCCC[C@H]2C(=O)O[C@H]([C@H](C)C[C@@H]2CC[C@@H](O)[C@H](OC)C2)CC(=O)[C@H](C)/C=C(\C)[C@@H](O)[C@@H](OC)C(=O)[C@H](C)C[C@H](C)/C=C/C=C/C=C/1C [Sirolimus]
- EC50, CellTiter-Blue viability [2]: 0.18 nM
- EC50, CellTiter-Blue viability [3]: 0.14 nM
- EC50, CellTiter-Blue viability [5]: 1.32 nM
- EC50, CellTiter-Blue viability [11]: 0.79 nM
- EC50, CellTiter-Blue viability [12]: 1.24 nM
- EC50, CellTiter-Blue viability [14]: 0.46 nM
- EC50, CellTiter-Blue viability [15]: 0.55 nM
- EC50, CellTiter-Blue viability [16]: 1.13 nM
- EC50, CellTox Green [17]: 98.7 nM

- EC50, CellTiter-Blue viability [18]: 7520 nM
- EC50, CellTiter-Blue viability [8]: 4420 nM
- EC50, CellTiter-Blue viability [10]: 3420 nM
- EC50, CellTiter-Blue viability [13]: 5970 nM
SMILES: CC/C(=C(\c1ccccc1)c1ccc(OCCN(C)C)cc1)c1ccccc1 [Tamoxifen]
- EC50, CellTox Green [19]: 7240 nM
- EC50, CellTox Green [17]: 325 nM

- EC50, CellTiter-Blue viability [10]: 1330 nM
SMILES: Cn1nnc2c(C(N)=O)ncn2c1=O [Temozolomide]
- EC50, CellTiter-Blue viability [15]: 7850 nM

- EC50, CellTiter-Glo [22]: 64.5 nM
- EC50, CellTiter-Blue viability [4]: 8.58 nM
- EC50, CellTiter-Blue viability [6]: 13.8 nM
- EC50, CellTiter-Blue viability [7]: 11.1 nM
- EC50, CellTiter-Blue viability [23]: 20.4 nM
- EC50, CellTiter-Blue viability [8]: 13.7 nM
- EC50, CellTiter-Blue viability [10]: 23.5 nM
- EC50, CellTiter-Blue viability [24]: > 1000 nM
- EC50, CellTiter-Blue viability [13]: 6.23 nM
SMILES: CC[C@@H]1C(=O)N(C)c2cnc(Nc3ccc(C(=O)N[C@H]4CC[C@H](N5CCN(CC6CC6)CC5)CC4)cc3OC)nc2N1C(C)C [Volasertib]
- EC50, CellTiter-Blue viability [2]: 1.6 nM
- EC50, CellTiter-Blue viability [3]: 36.8 nM
- EC50, CellTiter-Blue viability [5]: 5.21 nM
- EC50, CellTiter-Blue viability [11]: 24.8 nM
- EC50, CellTiter-Blue viability [12]: 24.7 nM
- EC50, CellTiter-Blue viability [14]: 10.4 nM
- EC50, CellTiter-Blue viability [15]: 379 nM
- EC50, CellTiter-Blue viability [16]: 11.6 nM
- EC50, CellTox Green [25]: 0.83 nM
- EC50, CellTox Green [26]: 120 nM
- EC50, CellTox Green [27]: 3.2 nM
- EC50, CellTox Green [28]: 17.9 nM
- EC50, CellTox Green [29]: 2.53 nM
- EC50, CellTox Green [20]: 49.1 nM
- EC50, CellTox Green [17]: 0.49 nM
- EC50, CellTox Green [30]: 3.18 nM
- EC50, CellTox Green [31]: 68.5 nM
